# Assay results from patent US10882860B2, “Treatment of osteoarthritis” (Samumed, LLC, priority 2015, dated 2021).
# Read-outs that look alike come from different tables or passages of the source. Marks after values point to notes of the source that are not given here.
# Tests used:
# Format in all cases: physicochemical
# [1] = Competitive slurry experiments between polymorph forms (thermodynamic stability); settings: for most stable form in competitive slurry: 15 forms mixed (10 mg each), RT and 50° C., 3-5 days
# Procedure: In order to find out the thermodynamic stability between the different forms, several competitive slurry experiments were carried out. Form 1, Form 2, Form 2*, Form 3, Form 4, Form 4*, Form 4**, Form 5, Form 7, Form 8, Form 9, Form 10, Form 11, Form 11*, and Form 13 (10 mg for each) was mixed and slurried in 2 mL of solvent at both RT and 50° C. The solids were slurried for 3-5 days and then analyzed by XRD.
# In order to find out the thermodynamic stability between Form 13 and Form 9, several competitive slurry experiments were carried out. 15 mg of Form 1, Form 9 and Form 13 solid were mixed in 1 mL of toluene, IPAc, and n-butyl acetate, and slurried for 3 days at RT and 50° C.
# The residual solid was analyzed by XRD.
# [2] = Dynamic vapor sorption (DVS) and exposure to humidity/air of solid forms
# Procedure: The hydrate lost its water below 30% RH.
# The purity of the Form 13 sample was 98.8%; the KF of an undried Form 13 sample was 35.7%.
# Solvates 1 and 2 solids were exposed to air overnight, and then analyzed by XRD. After the analysis, the solids were dried at 50° C. under vacuum, and then analyzed by XRD again.
# [3] = Slurry experiments in various solvents (polymorph screen)
# Procedure: Slurry experiments in various solvents were performed. Approximately 30-80 mg of the starting solid (a non-stoichiometric hydrate of Form 1 having between 1% and about 20% by weight water) was slurried in 39 different solvents (pure and binary solvents; the ratio of organic solvent/water (V/V) was 95%/5%) at RT and 50° C. for 5 days. Three solvates, […], and eleven non-solvated forms were identified. […] XRD of both wet and dry samples were scanned (FIG. 12A (dry sample)).
# The slurry experiments identified 3 solvated forms from wet samples (Solvates 1, 2, and 3); 2 non-stoichiometric hydrates of Form 1 (Forms 12 and 13); and 11 non-solvated forms (Forms 1-11). In some instances, similar XRD scans with minor differences were obtained. These were considered to be part of the same class (e.g., the same form). For example, XRD scans of Form 2 and Form 2* were similar and were considered to belong to the same class. The solvated forms were obtained from wet sample analysis; after drying, the sample indicated a different XRD.
# [4] = Solubility of the starting solid by the gravimetric method; settings: for solubility: thermodynamic from solid
# [5] = slurry in EtOH/water (5% water), 50° C.
# [6] = slurry in n-Butyl acetate, 50° C.
# [7] = slurry in n-Propanol/water (5% water), 50° C.
# [8] = slurry in DMSO/water (5% water), 50° C.
# [9] = slurry in DMSO/water (5% water), RT
# [10] = slurry in DMF/water (5% water), 50° C.
# [11] = slurry in DMF/water (5% water), RT
structure (smiles),measurement,setting,value
"CC(C)CC(=O)Nc1cncc(-c2ccc3[nH]nc(-c4nc5c(-c6cccc(F)c6)cncc5[nH]4)c3c2)c1 [Form 1, Form 9 and Form 13]",Form after 3 days; wet/dry,"[1]; 50° C., IPAc",Form 9/Form 9
same,Form after 3 days; wet/dry,"[1]; 50° C., Toluene",Form 9 + Form 13/Form 9 + Form 1
same,Form after 3 days; wet/dry,"[1]; 50° C., n-Butyl acetate",Form 9 + Form 13/Form 9 + Form 1
same,Form after 3 days; wet/dry,"[1]; RT, IPAc",Form 9 + Form 13/Form 9 + Form 1
same,Form after 3 days; wet/dry,"[1]; RT, Toluene",Form 13/Form 1
same,Form after 3 days; wet/dry,"[1]; RT, n-Butyl acetate",Form 9 + Form 13/Form 9 + Form 1
CC(C)CC(=O)Nc1cncc(-c2ccc3[nH]nc(-c4nc5c(-c6cccc(F)c6)cncc5[nH]4)c3c2)c1 [Form 1],form change when exposed to air,[2]; exposed to air,converts to Form 13
CC(C)CC(=O)Nc1cncc(-c2ccc3[nH]nc(-c4nc5c(-c6cccc(F)c6)cncc5[nH]4)c3c2)c1 [Form 4],most stable form in competitive slurry,[1]; EA,most stable
CC(C)CC(=O)Nc1cncc(-c2ccc3[nH]nc(-c4nc5c(-c6cccc(F)c6)cncc5[nH]4)c3c2)c1 [Form 9],change of form before and after the DVS scan,[2]; XRD before/after DVS,did not change its form
same,Dry (solid form by XRD after slurry),[3]; [5],Form 9
same,Wet (solid form by XRD after slurry),[3]; [5],Form 9
same,Dry (solid form by XRD after slurry),"[3]; slurry in IPAc, 50° C.",Form 9
same,Wet (solid form by XRD after slurry),"[3]; slurry in IPAc, 50° C.",Form 9
same,Dry (solid form by XRD after slurry),"[3]; slurry in n-Butanol, 50° C.",Form 9
same,Wet (solid form by XRD after slurry),"[3]; slurry in n-Butanol, 50° C.",Form 9
same,Dry (solid form by XRD after slurry),"[3]; slurry in n-Butanol, RT",Form 9
same,Wet (solid form by XRD after slurry),"[3]; slurry in n-Butanol, RT",Form 9
same,Dry (solid form by XRD after slurry),[3]; [6],Form 9
same,Wet (solid form by XRD after slurry),[3]; [6],Form 9
same,Dry (solid form by XRD after slurry),[3]; [7],Form 9
same,Wet (solid form by XRD after slurry),[3]; [7],Form 9
CC(C)CC(=O)Nc1cncc(-c2ccc3[nH]nc(-c4nc5c(-c6cccc(F)c6)cncc5[nH]4)c3c2)c1 [Form 10],Dry (solid form by XRD after slurry),"[3]; slurry in DMSO, 50° C.",Form 10*
same,Wet (solid form by XRD after slurry),"[3]; slurry in DMSO, 50° C.",amorphous
same,Dry (solid form by XRD after slurry),"[3]; slurry in DMSO, RT",Form 10
same,Wet (solid form by XRD after slurry),"[3]; slurry in DMSO, RT",amorphous
same,Dry (solid form by XRD after slurry),[3]; [8],Form 10
same,Wet (solid form by XRD after slurry),[3]; [8],amorphous
same,Dry (solid form by XRD after slurry),[3]; [9],Form 10
same,Wet (solid form by XRD after slurry),[3]; [9],amorphous
CC(C)CC(=O)Nc1cncc(-c2ccc3[nH]nc(-c4nc5c(-c6cccc(F)c6)cncc5[nH]4)c3c2)c1 [Form 11],Dry (solid form by XRD after slurry),"[3]; slurry in DMF, 50° C.",Form 11*
same,Wet (solid form by XRD after slurry),"[3]; slurry in DMF, 50° C.",Form 11
same,Dry (solid form by XRD after slurry),"[3]; slurry in DMF, RT",Form 11
same,Wet (solid form by XRD after slurry),"[3]; slurry in DMF, RT",Form 11
same,Dry (solid form by XRD after slurry),[3]; [10],Form 11
same,Wet (solid form by XRD after slurry),[3]; [10],Form 11
same,Dry (solid form by XRD after slurry),[3]; [11],Form 11
same,Wet (solid form by XRD after slurry),[3]; [11],Form 11
CC(C)CC(=O)Nc1cncc(-c2ccc3[nH]nc(-c4nc5c(-c6cccc(F)c6)cncc5[nH]4)c3c2)c1 [Form 13],most stable form in competitive slurry,[1]; water,most stable
CC(C)CC(=O)Nc1cncc(-c2ccc3[nH]nc(-c4nc5c(-c6cccc(F)c6)cncc5[nH]4)c3c2)c1 [Solvate 1],form change after exposure to air overnight (XRD),[2],converted to low crystallinity
CC(C)CC(=O)Nc1cncc(-c2ccc3[nH]nc(-c4nc5c(-c6cccc(F)c6)cncc5[nH]4)c3c2)c1 [Solvate 2],form change after exposure to air overnight (XRD),[2],changed a little
CC(C)CC(=O)Nc1cncc(-c2ccc3[nH]nc(-c4nc5c(-c6cccc(F)c6)cncc5[nH]4)c3c2)c1 [starting solid],Solubility (gravimetric method),"[4]; RT and 50° C., all solvents tested except DMF and DMSO",low solubility
same,solubility,"[4]; organic solvent or mixture, Acetic acid, 50° C., read-out: Solubility at 50° C.",3000 µg/mL
same,solubility,"[4]; organic solvent or mixture, Acetone, 50° C., read-out: Solubility at 50° C.",1000 µg/mL
same,solubility,"[4]; organic solvent or mixture, Acetone, RT, read-out: Solubility at RT",1000 µg/mL
same,solubility,"[4]; organic solvent or mixture, DCM, 50° C., read-out: Solubility at 50° C.",2000 µg/mL
same,solubility,"[4]; organic solvent or mixture, DCM, RT, read-out: Solubility at RT",2000 µg/mL
same,solubility,"[4]; organic solvent or mixture, DMF, 50° C., read-out: Solubility at 50° C.",16000 µg/mL
same,solubility,"[4]; organic solvent or mixture, DMF, RT, read-out: Solubility at RT",12000 µg/mL
same,solubility,"[4]; organic solvent or mixture, EA, 50° C., read-out: Solubility at 50° C.",1000 µg/mL
same,solubility,"[4]; organic solvent or mixture, EA, RT, read-out: Solubility at RT",1000 µg/mL
same,solubility,"[4]; organic solvent or mixture, EtOH, 50° C., read-out: Solubility at 50° C.",2000 µg/mL
same,solubility,"[4]; organic solvent or mixture, EtOH, RT, read-out: Solubility at RT",2000 µg/mL
same,solubility,"[4]; organic solvent or mixture, IPA, 50° C., read-out: Solubility at 50° C.",5000 µg/mL
same,solubility,"[4]; organic solvent or mixture, IPA, RT, read-out: Solubility at RT",2000 µg/mL
same,solubility,"[4]; organic solvent or mixture, MEK, 50° C., read-out: Solubility at 50° C.",1000 µg/mL
same,solubility,"[4]; organic solvent or mixture, MEK, RT, read-out: Solubility at RT",1000 µg/mL
same,solubility,"[4]; organic solvent or mixture, MIBK, 50° C., read-out: Solubility at 50° C.",1000 µg/mL
same,solubility,"[4]; organic solvent or mixture, MIBK, RT, read-out: Solubility at RT",1000 µg/mL
same,solubility,"[4]; organic solvent or mixture, MeOH, 50° C., read-out: Solubility at 50° C.",1000 µg/mL
same,solubility,"[4]; organic solvent or mixture, MeOH, RT, read-out: Solubility at RT",1000 µg/mL
same,solubility,"[4]; organic solvent or mixture, Toluene, 50° C., read-out: Solubility at 50° C.",1000 µg/mL
same,solubility,"[4]; organic solvent or mixture, Toluene, RT, read-out: Solubility at RT",1000 µg/mL
same,solubility,"[4]; organic solvent or mixture, n-Butanol, 50° C., read-out: Solubility at 50° C.",2000 µg/mL
same,solubility,"[4]; organic solvent or mixture, n-Butanol, RT, read-out: Solubility at RT",1000 µg/mL
same,solubility,"[4]; organic solvent or mixture, n-Propanol, 50° C., read-out: Solubility at 50° C.",2000 µg/mL
same,solubility,"[4]; organic solvent or mixture, n-Propanol, RT, read-out: Solubility at RT",1000 µg/mL
same,solubility,"[4]; water, 50° C., read-out: Solubility at 50° C.",1000 µg/mL
same,solubility,"[4]; water, RT, read-out: Solubility at RT",1000 µg/mL
